Assays:
[1] = Urinary excretion of nitrates, randomized prospective study in erectile dysfunction patients; format: in vivo; conditions: for Urinary excretion of nitrates, baseline: before administration; for Urinary excretion of nitrates, after administration: oral, L-citrulline 6 grams/day or L-arginine 3 grams/day, 7 days after beginning of administration
Method: (§1) The effectiveness of the administration of L-citrulline in the treatment of erectile dysfunction has been verified by conducting a randomized prospective study on 20 patients, during which L-citrulline was administered orally with a dosage of 6 grams/day, in two separate 3-gram doses, to patients affected by erectile dysfunction.
(§2) The effects of the administration were then tested at the biochemical level by studying the following parameters:
3. urinary excretion of nitrates;
(§3) The data related to the above cited biochemical parameters were acquired for patients subjected to the test 7 days after the beginning of the administration of the drug and are shown below in Table 1, Table 2, Table 3 and Table 4.

[2] = Urinary excretion of cGMP, randomized prospective study in erectile dysfunction patients; format: in vivo; conditions: for Urinary excretion of cGMP, baseline: before administration; for Urinary excretion of cGMP, after administration: oral, L-citrulline 6 grams/day or L-arginine 3 grams/day, 7 days after beginning of administration
Method: as §1, §2
4. urinary excretion of cGMP.
as §3

[3] = Plasma levels of L-arginine after oral administration, randomized prospective study in erectile dysfunction patients; format: in vivo; conditions: in words
Method: as §1, §2, §3

[4] = Blood L-arginine/ADMA ratio, randomized prospective study in erectile dysfunction patients; format: in vivo
Method: as §1, §2, §3

erectile dysfunction = assay: Erectile function assessment card (IIF-5 questionnaire); format: in vivo, patients; conditions: oral 6 grams/day, in words
Method: as §1
(§4) Moreover, the effects at the clinical level were also tested by administering the “Erectile function assessment card” (IIF-5 questionnaire) to the patients and by measuring flow-mediated vasodilation of the cavernous arteries before and after therapy.

cavernous arteries = assay: Flow-mediated vasodilation of the cavernous arteries before and after therapy; format: in vivo, patients; conditions: oral 6 grams/day, before vs after therapy, in words
Method: as §1, §4

Row | SMILES | Urinary excretion of nitrates, baseline [1] | Urinary excretion of nitrates, after administration [1] | Urinary excretion of cGMP, baseline [2] | Urinary excretion of cGMP, after administration [2] | Plasma half-life of L-arginine with respect to administration of L-arginine [3] | Plasma levels of arginine with respect to administration of L-arginine [3] | L-arginine/ADMA ratio, baseline ([4]; baseline, before administration) | L-arginine/ADMA ratio, after administration ([4]; oral, L-citrulline 6 grams/day or L-arginine 3 grams/day, 7 days after beginning of administration) | Excretion of nitrates with respect to administration of L-arginine ([1]; oral administration, in words) | Excretion of cGMP with respect to administration of L-arginine ([2]; oral administration, in words) | IIF-5 questionnaire, components related to achieving and maintaining erection (erectile dysfunction) | Increase in flow-mediated vasodilation at the level of the cavernous arteries (cavernous arteries)
1 | N=C(N)NCCC[C@H](N)C(=O)O [L-arginine, reference compound] | 91 ± 10 nmol/mmol creatinine | 93 ± 12 nmol/mmol creatinine | 38 ± 3.1 nmol/mmol creatinine | 39 ± 4.5 nmol/mmol creatinine |  |  |  |  |  |  |  | 
2 | NC(=O)NCCC[C@H](N)C(=O)O [L-citrulline] | 89 ± 9 nmol/mmol creatinine | 133 ± 16 nmol/mmol creatinine | 40 ± 2.8 nmol/mmol creatinine | 55 ± 3.8 nmol/mmol creatinine | statistically longer | statistically higher | 183 ± 8 | 290 ± 15 | higher excretion | higher excretion | leads to a modification of the IIF-5 questionnaire | statistically higher increase

Source: US8802162B2, “L-citrulline for treating endothelial dysfunction and erectile dysfunction” (Androsystems S.R.L., priority 2008, dated 2014)
